Test results as given in PMC9005681, “Use of AD Informer Set compounds to explore validity of novel targets in Alzheimer's disease pathology” (Alzheimer's & Dementia : Translational Research & Clinical …, 2022).
Read-outs that look alike come from different tables or passages of the source.

Columns and labels:
[1] = biological target: T1, cloned human or rodent CNS receptors, channels, and transporters (PDSP panel) (Homo sapiens, UniProt P08172); test: PDSP GPCR panel primary binding assays at 10 μM; settings: primary assay
T1 construct: expressed in transfected cells
T1 sequence (P08172 1-466): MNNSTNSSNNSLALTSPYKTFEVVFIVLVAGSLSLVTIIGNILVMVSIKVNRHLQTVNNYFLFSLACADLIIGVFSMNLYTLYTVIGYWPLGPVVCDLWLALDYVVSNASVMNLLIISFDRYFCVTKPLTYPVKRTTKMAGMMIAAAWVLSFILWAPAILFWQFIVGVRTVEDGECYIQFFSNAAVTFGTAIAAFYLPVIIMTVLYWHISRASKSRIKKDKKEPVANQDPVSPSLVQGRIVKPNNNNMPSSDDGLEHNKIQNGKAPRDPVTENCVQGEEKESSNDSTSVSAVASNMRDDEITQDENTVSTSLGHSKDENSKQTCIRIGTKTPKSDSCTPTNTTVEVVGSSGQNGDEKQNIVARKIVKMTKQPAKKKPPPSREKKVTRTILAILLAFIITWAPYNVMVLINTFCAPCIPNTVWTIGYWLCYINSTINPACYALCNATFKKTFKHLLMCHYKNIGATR
Protocol: (§1) GPCR panel: Screening against the receptors within the PDSP panel offers an assessment of off-target pharmacological activity at cloned human or rodent CNS receptors, channels, and transporters that could confound CNS-related phenotypes. A total of 46–47 primary binding assays were run in quadruplicate on these compounds at 10 μM, with follow-up secondary binding assays in 11-point dose-response in triplicate for select compounds versus select receptors. Secondary binding assays were executed for all receptors where test compound displaced an average of >50% of radio-labeled standard ligand. As an exception, no secondary assays were carried out for H3, PBR, or GABAA. […]

[2] = biological target: T2, cloned human or rodent CNS receptors, channels, and transporters (PDSP panel) (Homo sapiens, UniProt P08912); test: PDSP GPCR panel primary binding assays at 10 μM; settings: primary assay
T2 construct: expressed in transfected cells
T2 sequence (P08912 1-532): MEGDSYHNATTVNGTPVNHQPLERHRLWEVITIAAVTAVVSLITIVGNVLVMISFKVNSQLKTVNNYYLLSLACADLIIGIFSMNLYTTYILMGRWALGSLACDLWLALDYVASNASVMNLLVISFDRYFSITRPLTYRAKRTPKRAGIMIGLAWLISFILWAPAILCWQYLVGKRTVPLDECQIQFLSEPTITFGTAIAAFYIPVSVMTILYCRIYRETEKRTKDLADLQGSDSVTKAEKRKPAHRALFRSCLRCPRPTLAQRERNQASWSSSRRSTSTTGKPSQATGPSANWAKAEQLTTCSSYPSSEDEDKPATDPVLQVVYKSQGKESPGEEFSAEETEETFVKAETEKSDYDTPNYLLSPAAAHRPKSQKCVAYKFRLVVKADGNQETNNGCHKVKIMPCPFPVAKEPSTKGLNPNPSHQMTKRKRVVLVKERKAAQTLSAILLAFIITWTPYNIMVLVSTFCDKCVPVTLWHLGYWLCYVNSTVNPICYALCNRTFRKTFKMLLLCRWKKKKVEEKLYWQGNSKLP
Protocol: as §1

[3] = biological target: T3, cloned human or rodent CNS receptors, channels, and transporters (PDSP panel) (Homo sapiens, UniProt P21918); test: PDSP GPCR panel primary binding assays at 10 μM; settings: primary assay
T3 construct: expressed in transfected cells
T3 sequence (P21918 whole entry): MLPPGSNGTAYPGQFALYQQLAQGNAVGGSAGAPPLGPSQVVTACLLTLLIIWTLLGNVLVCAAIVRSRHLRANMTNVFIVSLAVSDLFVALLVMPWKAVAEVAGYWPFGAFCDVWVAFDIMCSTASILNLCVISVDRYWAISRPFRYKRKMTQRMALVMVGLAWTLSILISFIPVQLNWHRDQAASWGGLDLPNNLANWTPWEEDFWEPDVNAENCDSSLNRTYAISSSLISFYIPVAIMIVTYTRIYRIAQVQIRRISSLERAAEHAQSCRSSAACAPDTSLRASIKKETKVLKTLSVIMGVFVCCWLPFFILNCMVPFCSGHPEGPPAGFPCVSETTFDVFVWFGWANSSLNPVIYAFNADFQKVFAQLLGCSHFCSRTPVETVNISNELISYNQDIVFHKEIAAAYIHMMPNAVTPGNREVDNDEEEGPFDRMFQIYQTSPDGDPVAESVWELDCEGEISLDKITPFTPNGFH
Protocol: as §1

[4] = biological target: T4, cloned human or rodent CNS receptors, channels, and transporters (PDSP panel) (Homo sapiens, UniProt P25021); test: PDSP GPCR panel primary binding assays at 10 μM; settings: primary assay
T4 construct: expressed in transfected cells
T4 sequence (P25021 whole entry): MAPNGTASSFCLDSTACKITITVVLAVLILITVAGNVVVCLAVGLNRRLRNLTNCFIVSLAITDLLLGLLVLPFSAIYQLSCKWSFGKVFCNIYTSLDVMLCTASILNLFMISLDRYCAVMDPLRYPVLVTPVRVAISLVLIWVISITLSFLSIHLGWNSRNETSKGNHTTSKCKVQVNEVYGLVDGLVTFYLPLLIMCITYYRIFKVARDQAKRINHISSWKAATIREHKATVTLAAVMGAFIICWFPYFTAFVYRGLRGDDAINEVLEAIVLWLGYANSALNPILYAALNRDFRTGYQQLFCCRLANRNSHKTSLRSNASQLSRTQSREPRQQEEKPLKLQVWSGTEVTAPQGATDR
Protocol: as §1

[5] = biological target: T5, cloned human or rodent CNS receptors, channels, and transporters (PDSP panel) (Homo sapiens, UniProt P35372); test: PDSP GPCR panel primary binding assays at 10 μM; settings: primary assay
T5 construct: expressed in transfected cells
T5 sequence (P35372 whole entry): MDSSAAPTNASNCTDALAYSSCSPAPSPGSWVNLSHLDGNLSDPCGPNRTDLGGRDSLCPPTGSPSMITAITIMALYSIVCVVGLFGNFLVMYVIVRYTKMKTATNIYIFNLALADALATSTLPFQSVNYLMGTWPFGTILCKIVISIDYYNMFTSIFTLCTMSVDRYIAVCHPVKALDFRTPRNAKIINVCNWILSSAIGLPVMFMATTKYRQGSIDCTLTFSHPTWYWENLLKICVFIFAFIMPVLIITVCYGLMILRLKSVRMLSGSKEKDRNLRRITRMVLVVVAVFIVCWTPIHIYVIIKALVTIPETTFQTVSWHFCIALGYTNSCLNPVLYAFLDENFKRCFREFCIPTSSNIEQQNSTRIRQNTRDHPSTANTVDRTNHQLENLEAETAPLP
Protocol: as §1

[6] = biological target: T6, cloned human or rodent CNS receptors, channels, and transporters (PDSP panel) (Homo sapiens, UniProt P41145); test: PDSP GPCR panel primary binding assays at 10 μM; settings: primary assay
T6 construct: expressed in transfected cells
T6 sequence (P41145 whole entry): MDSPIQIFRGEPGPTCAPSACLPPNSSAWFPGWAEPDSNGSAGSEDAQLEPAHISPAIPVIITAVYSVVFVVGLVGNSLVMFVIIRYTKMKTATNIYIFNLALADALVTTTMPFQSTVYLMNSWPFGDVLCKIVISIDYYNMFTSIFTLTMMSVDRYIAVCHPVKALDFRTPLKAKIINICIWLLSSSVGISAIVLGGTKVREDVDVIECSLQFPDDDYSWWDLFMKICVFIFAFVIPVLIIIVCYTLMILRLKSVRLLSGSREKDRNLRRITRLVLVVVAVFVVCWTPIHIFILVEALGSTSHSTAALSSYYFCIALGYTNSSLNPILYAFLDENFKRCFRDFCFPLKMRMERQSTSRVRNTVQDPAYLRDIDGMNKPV
Protocol: as §1

[7] = biological target: T7, cloned human or rodent CNS receptors, channels, and transporters (PDSP panel) (Homo sapiens, UniProt P41595); test: PDSP GPCR panel primary binding assays at 10 μM; settings: primary assay
T7 construct: expressed in transfected cells
T7 sequence (P41595 whole entry): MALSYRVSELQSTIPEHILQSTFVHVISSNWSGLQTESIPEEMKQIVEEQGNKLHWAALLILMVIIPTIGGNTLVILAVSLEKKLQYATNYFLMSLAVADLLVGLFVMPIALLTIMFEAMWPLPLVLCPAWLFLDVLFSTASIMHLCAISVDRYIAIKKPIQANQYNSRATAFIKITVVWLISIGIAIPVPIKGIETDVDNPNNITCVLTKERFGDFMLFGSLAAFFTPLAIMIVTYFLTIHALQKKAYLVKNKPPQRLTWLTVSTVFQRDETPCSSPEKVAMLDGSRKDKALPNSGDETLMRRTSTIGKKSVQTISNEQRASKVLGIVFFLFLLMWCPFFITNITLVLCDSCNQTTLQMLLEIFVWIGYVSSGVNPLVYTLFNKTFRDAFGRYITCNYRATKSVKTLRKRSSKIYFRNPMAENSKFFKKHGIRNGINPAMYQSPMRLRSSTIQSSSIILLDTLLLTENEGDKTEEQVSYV
Protocol: as §1

[8] = biological target: T8, cloned human or rodent CNS receptors, channels, and transporters (PDSP panel) (Homo sapiens, UniProt P46098); test: PDSP GPCR panel primary binding assays at 10 μM; settings: primary assay
T8 construct: expressed in transfected cells
T8 sequence (P46098 24-478): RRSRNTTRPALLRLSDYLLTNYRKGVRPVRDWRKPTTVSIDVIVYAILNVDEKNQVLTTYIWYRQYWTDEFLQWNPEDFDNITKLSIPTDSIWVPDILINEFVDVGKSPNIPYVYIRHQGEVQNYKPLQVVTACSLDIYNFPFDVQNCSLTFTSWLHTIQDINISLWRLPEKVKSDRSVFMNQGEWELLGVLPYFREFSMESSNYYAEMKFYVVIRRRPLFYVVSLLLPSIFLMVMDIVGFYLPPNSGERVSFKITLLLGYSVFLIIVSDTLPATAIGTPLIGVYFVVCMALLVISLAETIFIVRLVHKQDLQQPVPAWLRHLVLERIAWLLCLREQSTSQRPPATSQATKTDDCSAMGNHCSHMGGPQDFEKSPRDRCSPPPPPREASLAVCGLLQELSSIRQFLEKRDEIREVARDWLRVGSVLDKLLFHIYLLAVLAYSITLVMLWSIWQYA
Protocol: as §1

[9] = system: cellular system; parameters: method as in column References for potency and dosing (the 5th table c13); settings: published data; References for potency and dosing; cited from earlier work
[10] = cited from earlier work

Cl.NC(=O)c1cnc(N[C@@H]2CCCC[C@@H]2N)nc1Nc1cccc(-n2nccn2)c1 [UNC10302682A, P505-15 (PRT06207 HCl)]
Inhibition 1 ([1]; Receptor M2, 10 μM): -1.69%
Inhibition 2 ([1]; Receptor M2, 10 μM): 2.24%
Inhibition 3 ([1]; Receptor M2, 10 μM): -4.88%
Inhibition 4 ([1]; Receptor M2, 10 μM): 1.51%
Mean % ([1]; Receptor M2, 10 μM, mean of Inhibition 1-4): -0.71%
Inhibition 1 ([2]; Receptor M5, 10 μM): 25.92%
Inhibition 2 ([2]; Receptor M5, 10 μM): 13.95%
Inhibition 3 ([2]; Receptor M5, 10 μM): 6.2%
Inhibition 4 ([2]; Receptor M5, 10 μM): -1.55%
Mean % ([2]; Receptor M5, 10 μM, mean of Inhibition 1-4): 11.13%
Inhibition 1 ([3]; Receptor D5, 10 μM): 21.97%
Inhibition 2 ([3]; Receptor D5, 10 μM): 17.01%
Inhibition 3 ([3]; Receptor D5, 10 μM): 7.24%
Inhibition 4 ([3]; Receptor D5, 10 μM): 14.53%
Mean % ([3]; Receptor D5, 10 μM, mean of Inhibition 1-4): 15.19%
Inhibition 1 ([4]; Receptor H2, 10 μM): 59.21%
Inhibition 2 ([4]; Receptor H2, 10 μM): 38.77%
Inhibition 3 ([4]; Receptor H2, 10 μM): 21.91%
Inhibition 4 ([4]; Receptor H2, 10 μM): -3.64%
Mean % ([4]; Receptor H2, 10 μM, mean of Inhibition 1-4): 29.06%
Inhibition 1 ([5]; Receptor MOR, 10 μM): 27.09%
Inhibition 2 ([5]; Receptor MOR, 10 μM): 20.29%
Inhibition 3 ([5]; Receptor MOR, 10 μM): 17.6%
Inhibition 4 ([5]; Receptor MOR, 10 μM): 20.19%
Mean % ([5]; Receptor MOR, 10 μM, mean of Inhibition 1-4): 21.29%
Inhibition 1 ([6]; Receptor KOR, 10 μM): -6.83%
Inhibition 2 ([6]; Receptor KOR, 10 μM): -18.02%
Inhibition 3 ([6]; Receptor KOR, 10 μM): -46.91%
Inhibition 4 ([6]; Receptor KOR, 10 μM): -15.34%
Mean % ([6]; Receptor KOR, 10 μM, mean of Inhibition 1-4): -21.78%
Inhibition 1 ([7]; Receptor 5-HT2B, 10 μM): 19.24%
Inhibition 2 ([7]; Receptor 5-HT2B, 10 μM): 3.3%
Inhibition 3 ([7]; Receptor 5-HT2B, 10 μM): -9.28%
Inhibition 4 ([7]; Receptor 5-HT2B, 10 μM): -13.48%
Mean % ([7]; Receptor 5-HT2B, 10 μM, mean of Inhibition 1-4): -0.06%
Inhibition 1 ([8]; Receptor 5-HT3, 10 μM): 66.83%
Inhibition 2 ([8]; Receptor 5-HT3, 10 μM): 77.09%
Inhibition 3 ([8]; Receptor 5-HT3, 10 μM): 73.28%
Inhibition 4 ([8]; Receptor 5-HT3, 10 μM): 75.45%
Mean % ([8]; Receptor 5-HT3, 10 μM, mean of Inhibition 1-4): 73.16%
Reported as cell active (<10 μM) [9]: Y (Published data supports that the compound is active in a cellular system when dosed at 10 μM (Y/N))
Kinetic solubility ([10]; aqueous, neutral pH (7.4)): 118.2 µM

CC(=O)N1CCC(NC(=O)NC23CC4CC(CC(C4)C2)C3)CC1 [UNC10302683A, AR9281]
Mean % ([1]; M2, mean inhibition): -10.23%
Inhibition 1 ([1]; M2, replicate 1): -16.19%
Inhibition 2 ([1]; M2, replicate 2): -6.36%
Inhibition 3 ([1]; M2, replicate 3): -14.96%
Inhibition 4 ([1]; M2, replicate 4): -3.41%
Mean % ([2]; M5, mean inhibition): -4.97%
Inhibition 1 ([2]; M5, replicate 1): 0.06%
Inhibition 2 ([2]; M5, replicate 2): -4.77%
Inhibition 3 ([2]; M5, replicate 3): -10.3%
Inhibition 4 ([2]; M5, replicate 4): -4.87%
Mean % ([3]; D5, mean inhibition): -11.88%
Inhibition 1 ([3]; D5, replicate 1): -7.18%
Inhibition 2 ([3]; D5, replicate 2): -13.14%
Inhibition 3 ([3]; D5, replicate 3): -18.03%
Inhibition 4 ([3]; D5, replicate 4): -9.17%
Mean % ([4]; H2, mean inhibition): -19%
Inhibition 1 ([4]; H2, replicate 1): 4.92%
Inhibition 2 ([4]; H2, replicate 2): -11.17%
Inhibition 3 ([4]; H2, replicate 3): -32.29%
Inhibition 4 ([4]; H2, replicate 4): -37.45%
Mean % ([5]; MOR, mean inhibition): 5.26%
Inhibition 1 ([5]; MOR, replicate 1): 2.55%
Inhibition 2 ([5]; MOR, replicate 2): 12.43%
Inhibition 3 ([5]; MOR, replicate 3): 4.76%
Inhibition 4 ([5]; MOR, replicate 4): 1.31%
Mean % ([6]; KOR, mean inhibition): -25.19%
Inhibition 1 ([6]; KOR, replicate 1): -27.43%
Inhibition 2 ([6]; KOR, replicate 2): -29%
Inhibition 3 ([6]; KOR, replicate 3): -23.06%
Inhibition 4 ([6]; KOR, replicate 4): -21.27%
Mean % ([7]; 5-HT2B, mean inhibition): -14.63%
Inhibition 1 ([7]; 5-HT2B, replicate 1): 28.05%
Inhibition 2 ([7]; 5-HT2B, replicate 2): -19.35%
Inhibition 3 ([7]; 5-HT2B, replicate 3): -37.81%
Inhibition 4 ([7]; 5-HT2B, replicate 4): -29.42%
Mean % ([8]; 5-HT3, mean inhibition): 13.87%
Inhibition 1 ([8]; 5-HT3, replicate 1): 9.48%
Inhibition 2 ([8]; 5-HT3, replicate 2): 13.6%
Inhibition 3 ([8]; 5-HT3, replicate 3): -1.71%
Inhibition 4 ([8]; 5-HT3, replicate 4): 34.11%
Reported as cell active (<10 μM) [9]: Y (Published data supports that the compound is active in a cellular system when dosed at 10 μM (Y/N))
Kinetic solubility ([10]; pH 7.4): 162.6 µM
